Measurements taken from ChEMBL document CHEMBL5331061, “Design, synthesis, and biological evaluation of Wee1 kinase degraders” (Eur J Med Chem, 2022).
Calls of active or inactive are those of the source. No cut-off for these calls is given here.

How the values were obtained:
[1] = biological target: Serine/threonine-protein kinase PLK1 (Homo sapiens, UniProt P53350); assay: Inhibition of PLK1 (unknown origin)
MV4-11 [2] = assay: Effect on PLK1 expression in human MV4-11 cells at IC50 measured after 6 hrs by Western blot analysis; assay type: functional, cell-based
MV4-11 [3] = assay: Effect on Wee1 mRNA expression in human MV4-11 cells at 50 nM measured upto 72 hrs by qRT-PCR assay; assay type: functional, cell-based
MV4-11 [4] = assay: Effect on PLK1 mRNA expression in human MV4-11 cells at 50 nM measured upto 72 hrs by qRT-PCR assay; assay type: functional, cell-based
MV4-11 [5] = assay: Effect on PKMYT1 mRNA expression in human MV4-11 cells at 50 nM measured upto 72 hrs by qRT-PCR assay; assay type: functional, cell-based
MV4-11 [6] = assay: Induction of cell cycle arrest in human MV4-11 cells assessed as accumulation of cells at G0/G1 phase incubated for 24 hrs by […] PI staining based flow cytometry analysis; assay type: functional; conditions: dose 12.5-200 nM
MV4-11 [7] = assay: Induction of apoptosis in human MV4-11 cells assessed as increase in early apoptotic cells incubated for 48 hrs by annexin V and PI staining based flow cytometry analysis; assay type: functional, cell-based; conditions: dose 12.5-200 nM
MV4-11 [8] = assay: Induction of apoptosis in human MV4-11 cells assessed as increase in late apoptotic cells incubated for 48 hrs by annexin V and PI staining based flow cytometry analysis; assay type: functional, cell-based; conditions: dose 12.5-200 nM
[9] = biological target: Cyclin-dependent kinase 1 (Homo sapiens) (UniProt P06493); assay: (§1) Inhibition of CDK1 phosphorylation in human MV4-11 cells assessed as reduction in phosphorylated CDK1 level by measuring residual activity at 50 uM pretreated for 2 hrs with proteasome inhibitor carfilzomib followed by incubation with compound for 3 hrs by Western blot analysis (reference value: 29%); assay type: cell-based
[10] = biological target: Cyclin-dependent kinase 1 (Homo sapiens) (UniProt P06493); assay: as §1, with “lenalidomide” for “carfilzomib”; assay type: cell-based
[11] = biological target: Cyclin-dependent kinase 1 (Homo sapiens) (UniProt P06493); assay: Inhibition of CDK1 phosphorylation in human MV4-11 cells assessed as reduction in phosphorylated CDK1 level by measuring residual activity at 50 uM pretreated for 2 hrs with proteasome inhibitor Iberdomide followed by incubation with compound for 3 hrs by Western blot analysis (reference value: 29%); assay type: cell-based
[12] = biological target: Cyclin-dependent kinase 1 (Homo sapiens) (UniProt P06493); assay: Inhibition of CDK1 phosphorylation in human MV4-11 cells assessed as reduction in phosphorylated CDK1 level by measuring residual activity at 50 uM pretreated for 2 hrs with proteasome inhibitor Bortezomib followed by incubation with compound for 3 hrs by Western blot analysis (reference value: 29%); assay type: cell-based
[13] = biological target: T1, Membrane-associated tyrosine- and threonine-specific cdc2-inhibitory kinase (Homo sapiens) (UniProt Q99640); assay: Induction of PKMYT1 degradation in human MV4-11 cells at 50 nM measured after 3 hrs by Western blot assay; assay type: cell-based
T1 sequence (whole entry): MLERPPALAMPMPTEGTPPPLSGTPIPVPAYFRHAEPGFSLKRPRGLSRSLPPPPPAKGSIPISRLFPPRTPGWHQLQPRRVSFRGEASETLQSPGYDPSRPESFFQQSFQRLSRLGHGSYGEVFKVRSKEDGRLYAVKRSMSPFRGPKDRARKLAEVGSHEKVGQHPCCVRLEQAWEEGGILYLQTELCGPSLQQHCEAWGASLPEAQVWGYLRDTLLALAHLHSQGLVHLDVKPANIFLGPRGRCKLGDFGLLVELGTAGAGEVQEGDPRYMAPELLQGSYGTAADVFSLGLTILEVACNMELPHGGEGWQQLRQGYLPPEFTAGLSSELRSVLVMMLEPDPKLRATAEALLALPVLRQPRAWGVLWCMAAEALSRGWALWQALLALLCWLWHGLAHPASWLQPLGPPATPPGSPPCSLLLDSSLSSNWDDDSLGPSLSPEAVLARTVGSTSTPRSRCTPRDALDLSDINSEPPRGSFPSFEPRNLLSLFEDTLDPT

[14] = Reduction in PKMYT1 level in human MV4-11 cells by measuring residual activity at 12.5 nM measured after 24 hrs by Western blot assay (reference value: 100%); assay type: functional
[15] = Reduction in PKMYT1 level in human MV4-11 cells by measuring residual activity at 25 nM measured after 24 hrs by Western blot assay (reference value: 100%); assay type: functional
[16] = Reduction in PKMYT1 level in human MV4-11 cells by measuring residual activity at 50 nM measured after 24 hrs by Western blot assay (reference value: 100%); assay type: functional
[17] = Reduction in PKMYT1 level in human MV4-11 cells by measuring residual activity at 100 nM measured after 24 hrs by Western blot assay (reference value: 100%); assay type: functional
[18] = Reduction in PKMYT1 level in human MV4-11 cells by measuring residual activity at 200 nM measured after 24 hrs by Western blot assay (reference value: 100%); assay type: functional
[19] = biological target: Cyclin-dependent kinase 1 (Homo sapiens) (UniProt P06493); assay: Inhibition of CDK1 phosphorylation in human MV4-11 cells by measuring residual activity at 12.5 nM measured after 24 hrs by Western blot assay; assay type: cell-based
[20] = biological target: Cyclin-dependent kinase 1 (Homo sapiens) (UniProt P06493); assay: Inhibition of CDK1 phosphorylation in human MV4-11 cells by measuring residual activity at 25 nM measured after 24 hrs by Western blot assay; assay type: cell-based
[21] = biological target: Cyclin-dependent kinase 1 (Homo sapiens) (UniProt P06493); assay: Inhibition of CDK1 phosphorylation in human MV4-11 cells by measuring residual activity at 50 nM measured after 24 hrs by Western blot assay; assay type: cell-based
[22] = biological target: Cyclin-dependent kinase 1 (Homo sapiens) (UniProt P06493); assay: Inhibition of CDK1 phosphorylation in human MV4-11 cells by measuring residual activity at 100 nM measured after 24 hrs by Western blot assay; assay type: cell-based
[23] = biological target: Cyclin-dependent kinase 1 (Homo sapiens) (UniProt P06493); assay: Inhibition of CDK1 phosphorylation in human MV4-11 cells by measuring residual activity at 200 nM measured after 24 hrs by Western blot assay; assay type: cell-based
[24] = Downregulation of PLK1 in human MV4-11 cells assessed as 2 log fold change at 50 nM measured after 2 hrs by proteomic analysis; assay type: functional
[25] = Downregulation of JAK2 in human MV4-11 cells assessed as 2 log fold change at 50 nM measured after 2 hrs by proteomic analysis; assay type: functional
[26] = Downregulation of MAP3K4 in human MV4-11 cells assessed as 2 log fold change at 50 nM measured after 2 hrs by proteomic analysis; assay type: functional
[27] = Half life in ICR mouse at 10 mg/kg, iv measured upto 360 mins; assay type: ADME, organism-based; conditions: in vivo
MV4-11 [28] = assay: Induction of apoptosis in human […] -/- MV4-11 cells at 50 to 400 nM measured after 48 hrs by AnnexinV/PI staining based flow cytometry analysis; assay type: functional, cell-based; conditions: dose 50-400 nM
MV4-11 [29] = assay: Induction of apoptosis in human MV4-11 cells assessed as cleaved PARP expression at 100 nM incubated for 24 hrs by Western blot analysis; assay type: functional, cell-based
MV4-11 [30] = assay: Induction of apoptosis in human MV4-11 cells assessed as cleaved caspase-3 expression at 100 nM incubated for 24 hrs by Western blot analysis; assay type: functional, cell-based
[31] = AUClast in ICR mouse at 10 mg/kg, iv measured upto 360 mins; assay type: ADME, organism-based; design: dose 10 mg/kg, time < 360 min, route iv; conditions: in vivo
[32] = Observed AUCinfinity ICR mouse at 10 mg/kg, iv measured upto 360 mins; assay type: ADME, organism-based; design: dose 10 mg/kg, time < 360 min, route iv; conditions: in vivo
[33] = Observed MRTinfinity ICR mouse at 10 mg/kg, iv measured upto 360 mins; assay type: ADME, organism-based; conditions: in vivo
[34] = biological target: Cyclin-dependent kinase 1 (Homo sapiens) (UniProt P06493); assay: Inhibition of CDK1 in human MV4-11 cells assessed as dephosphorylation at 50 nM pretreated for 2 hrs followed by replacement with fresh medium and measured after 24 hrs by Western blot method; assay type: cell-based; conditions: time 26.0 hrs
MV4-11 [35] = assay: Induction of […] in human MV4-11 cells assessed as change in gammaH2AX level at 12.5 to 200 nM measured after 24 hrs by Western blot analysis; assay type: functional, cell-based; conditions: dose 12.5-200 nM

Chain of Cyclin-dependent kinase 1 (Homo sapiens) (P06493 whole entry, looked up): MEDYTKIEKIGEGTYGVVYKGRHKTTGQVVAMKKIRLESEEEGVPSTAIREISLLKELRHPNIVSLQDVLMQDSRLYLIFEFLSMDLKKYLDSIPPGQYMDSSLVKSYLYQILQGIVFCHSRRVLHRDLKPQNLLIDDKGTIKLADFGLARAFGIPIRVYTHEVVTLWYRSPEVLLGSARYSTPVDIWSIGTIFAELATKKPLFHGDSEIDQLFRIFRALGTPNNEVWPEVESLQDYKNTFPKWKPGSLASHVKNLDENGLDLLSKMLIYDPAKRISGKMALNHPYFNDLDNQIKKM
Chain of Serine/threonine-protein kinase PLK1 (P53350 whole entry): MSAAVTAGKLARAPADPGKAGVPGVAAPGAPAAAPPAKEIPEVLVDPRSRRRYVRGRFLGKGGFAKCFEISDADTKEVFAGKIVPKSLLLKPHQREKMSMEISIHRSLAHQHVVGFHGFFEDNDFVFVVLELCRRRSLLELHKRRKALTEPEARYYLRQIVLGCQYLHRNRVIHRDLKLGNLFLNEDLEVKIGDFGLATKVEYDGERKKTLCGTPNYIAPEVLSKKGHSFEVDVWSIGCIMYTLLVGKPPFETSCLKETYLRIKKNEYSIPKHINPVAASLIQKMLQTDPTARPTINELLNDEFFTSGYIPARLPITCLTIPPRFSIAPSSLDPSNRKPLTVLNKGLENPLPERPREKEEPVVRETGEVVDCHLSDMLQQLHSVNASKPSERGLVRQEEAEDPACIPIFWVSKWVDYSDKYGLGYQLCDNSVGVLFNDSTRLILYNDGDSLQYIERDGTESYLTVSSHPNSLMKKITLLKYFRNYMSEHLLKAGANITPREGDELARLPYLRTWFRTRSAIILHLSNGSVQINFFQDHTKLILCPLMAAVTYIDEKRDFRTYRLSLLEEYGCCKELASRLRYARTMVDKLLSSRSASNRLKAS

- IC50 [1]: 2970 nM
- Activity [9]: 96%
- Activity [10]: 102%
- Activity [11]: 75%
- Activity [12]: 120%
- Activity [13]: Active
- Activity [19]: 88%
- Activity [20]: 80%
- Activity [21]: 50%
- Activity [22]: 22%
- Activity [23]: 20%
- half-life [27]: 1.31 h
- AUC(0-t) at 6 h [31]: 4580 ng·h/mL
- AUC(0-inf) [32]: 4660 ng·h/mL
- MRT inf [33]: 0.943 h
- inhibition [34]: Active
SMILES: C=CCn1c(=O)c2cnc(Nc3ccc(N4CCN(CCCCNc5cccc6c5C(=O)N(C5CCC(=O)NC5=O)C6=O)CC4)cc3)nc2n1-c1cccc(C(C)(C)O)n1 (stereo not given)
- Activity (MV4-11 [2]): inactive
- Activity (MV4-11 [3]): inactive
- Activity (MV4-11 [4]): inactive
- Activity (MV4-11 [5]): inactive
- Activity (MV4-11 [6]): Dose-Dependent Effect
- Activity (MV4-11 [7]): Dose-Dependent Effect
- Activity (MV4-11 [8]): Dose-Dependent Effect
- Activity [14]: 113%
- Activity [15]: 99%
- Activity [16]: 38%
- Activity [17]: 37%
- Activity [18]: 25%
- FC [24]: 0.38
- FC [25]: -0.1
- FC [26]: -0.06
- Activity (MV4-11 [28]): inactive
- Activity (MV4-11 [29]): Active
- Activity (MV4-11 [30]): Active
- Activity (MV4-11 [35]): inactive
